Active and inactive are the calls of the source. No cut-off for these calls is given here.
How the values were obtained:
Type in all cases: functional
[1] = test system: Bacillus spizizenii; test: Antibacterial activity against Bacillus subtilis ATCC 6633 at 50 ug/ml by plate assay; conditions: read-out: IZ
[2] = test system: Enterobacteria phage lambda; test: Induction of lambda phage production in Escherichia coli W1709 (lambda) assessed as plaque formation up to 50 ug/ml preincubated for 30 mins followed by heart infusion broth and glucose addition measured after 120 mins
[3] = test system: L1210; test: Antitumor activity against mouse L1210 cells allografted in mouse assessed as tumor growth inhibition at 0.25 to 32 mg/kg, ip relative to control; conditions: dose mg/kg 0.25-32; route intraperitoneal
[4] = test system: Enterobacteria phage lambda; test: Induction of lambda phage production in Escherichia coli W1709 (lambda) assessed as plaque formation at 3.1 ug/ml preincubated for 30 mins followed by heart infusion broth and glucose addition measured after 120 mins relative to control
[5] = test system: Bacillus spizizenii; test: Antibacterial activity against Bacillus subtilis ATCC 6633 at 3.1 ug/ml by plate assay; conditions: read-out: IZ
[6] = test system: L1210; test: Antitumor activity against mouse L1210 cells allografted in mouse assessed as tumor growth inhibition at 0.64 mg/kg, ip relative to control; conditions: route intraperitoneal

| Compound | zone of inhibition at 50 µg/mL [1] [mm] | Activity [2] | T/C [3] | T/C [4] | zone of inhibition at 3.1 µg/mL [5] [mm] | T/C [6] |
| --- | --- | --- | --- | --- | --- | --- |
| CC(=O)[C@]1(O)Cc2c(O)c3c(c(O)c2[C@@H](S[C@H]2CCC[C@@H](N)C2)C1)C(=O)c1c(O)cccc1C3=O | 10.3 | inactive | <125 |  |  |  |
| CC(=O)[C@]1(O)Cc2c(O)c3c(c(O)c2[C@@H](O[C@H]2C[C@H](N)[C@H](O)[C@H](C)O2)C1)C(=O)c1c(O)cccc1C3=O [CARUBICIN] |  |  |  | 6.2 | 19 | 157 |
| CC(=O)[C@]1(O)Cc2c(O)c3c(c(O)c2[C@@H](S[C@@H]2CCC[C@@H](N)C2)C1)C(=O)c1c(O)cccc1C3=O | 10.5 | inactive |  |  |  |  |

Source: ChEMBL document CHEMBL3244189, “Synthesis and antitumor properties of 7-deoxy-7-[(cis- and trans-3-aminocyclohexane)thio]carminomycinone” (1979)
